Assay results: article PMC11317573 (Proceedings of the National Academy of Sciences of the …, 2024)

Target: T1, RdsA (YhiN) (Escherichia coli, UniProt P37631)
T1 sequence (P37631 1-400): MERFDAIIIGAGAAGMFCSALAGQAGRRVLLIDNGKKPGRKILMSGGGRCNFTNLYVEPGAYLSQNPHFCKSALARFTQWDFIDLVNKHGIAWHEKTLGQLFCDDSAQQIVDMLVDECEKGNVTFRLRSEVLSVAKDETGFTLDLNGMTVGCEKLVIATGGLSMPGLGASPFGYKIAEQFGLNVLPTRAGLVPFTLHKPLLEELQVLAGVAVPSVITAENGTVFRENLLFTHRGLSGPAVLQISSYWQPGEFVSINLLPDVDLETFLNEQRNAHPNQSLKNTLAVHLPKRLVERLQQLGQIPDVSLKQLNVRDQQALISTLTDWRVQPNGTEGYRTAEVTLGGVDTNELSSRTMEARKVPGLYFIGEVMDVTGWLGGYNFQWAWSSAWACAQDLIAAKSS
Assay: UV/visible spectrum of purified protein
Format: binding
Details: as purified; noncovalent

## Cc1cc2nc3c(=O)[nH]c(=O)nc-3n(C[C@H](O)[C@H](O)[C@H](O)COP(=O)(O)OP(=O)(O)OC[C@H]3O[C@@H](n4cnc5c(N)ncnc54)[C@H](O)[C@@H]3O)c2cc1C [FAD]
  holoprotein fraction (oxidized flavin): 61%
